The text below walks through data of ChEMBL document CHEMBL3507680, “University of Dundee, Gates Library screen for HepG2 cell viability”.

The structures appear in SMILES notation.

The data set is described as follows: Human HepG2 cell viability assay in 384 well format. More on the design: dose 125 nL, time 70.5 hour; concentration not given beside the values. The class given is toxicity, cell-based. To be noted: HepG2 cells, read-out: Inhibition.

For the molecule `COc1cccc(NC(=O)N(CCC(F)(F)F)C[C@H](O)CO)c1`, the cytotoxicity at 70.5 h is -4.42%. With `CN(CC1CCCC1)C(=O)c1cn(C)nc1-c1cccnc1` the figure was -3.43%; with `O=C(Nc1ccc(F)cc1F)N(CCC(F)(F)F)C[C@H](O)CO`, -12.9%; with `CCOc1ccccc1CNC(=O)NCC(c1cnn(C)c1)N(C)C` (stereo unspecified), -9.13%. Then `COCCc1noc(CN(C)c2cc(C)ncn2)n1`, with 17.1%; and `c1cncc(OCCNC2Cc3ccccc3C2)c1`, with -14.1%; and `CN(CC1CCOCC1)C(=O)NCCCN1CCCCC1`, with -3.15%.

On to `Nc1nccnc1C(=O)N1CCN(CCOc2ccccc2)CC1`, for which the cytotoxicity at 70.5 h amounted to 20.7%. In the case of `COc1ccccc1COCC(O)CN(C)c1ccc(C)cc1C` (stereo unspecified), the cytotoxicity at 70.5 h was determined as 15.1%. Take `CC(=O)NCCC(=O)NC1(c2ccc(Cl)c(Cl)c2)CC1`: the cytotoxicity at 70.5 h was -3.79%. Then `Cn1c(SCC(=O)NC(C)(C#N)C2CC2)nc2ccccc21` (stereo unspecified), with 0.675%. Then `Cn1cc(C2CCCN2C(=O)Cn2ccc3ccc(Cl)cc32)cn1` (stereo unspecified), with 12.2%; and `Cc1cc(NC(=O)N(C)C2CCN(c3ccccc3F)C2=O)n(C)n1` (stereo unspecified), with -0.35%. Then `Cc1cnn(CCNCCCOc2ccc3c(c2)OCO3)c1`, with -0.972%; and `CN(CC(=O)NC(C)(C#N)C1CC1)Cc1nnc(C2CC2)n1C` (stereo unspecified), with 1.7%; and `CC(C)c1nc(C2CCCN2c2ncc(C(N)=O)cc2Cl)no1` (stereo unspecified), with 12.4%. Take `CN(CC(=O)NC(C)(C#N)C1CC1)Cc1nc2ccccc2n1C` (stereo unspecified): the cytotoxicity at 70.5 h amounted to 4.49%. With `COCCNC(=O)NCCCOC1CCCc2ccccc21` (stereo unspecified) the figure was 1.91%; with `Cc1nc(Cn2cc(I)cc(C)c2=O)oc1C`, 2.15%. In the case of `O=C(CCc1ccsc1)N1CCC(C(=O)O)(c2ccccc2)CC1`, the cytotoxicity at 70.5 h is -0.12%. In the case of `CN1CCN(C(=O)CCc2cccnc2)c2ccc(F)cc21`, the cytotoxicity at 70.5 h was 1.2%. In the case of `FC(F)Oc1ccc(NCc2nc(C3CC3)no2)c(OC(F)F)c1`, the cytotoxicity at 70.5 h turned out to be 1.35%. Take `Cc1cccc(NC(=O)CCNCc2c(C)nn(C)c2N(C)C)n1`: the cytotoxicity at 70.5 h came to 2.77%.

For `COc1ccc(COCC(O)CN(C)c2ccc(C)cc2C)cc1` (stereo unspecified), the cytotoxicity at 70.5 h was 0.463%. As to `COc1ccc2c(ccn2CC(=O)N2CCCC2Cn2cccn2)c1` (stereo unspecified), the cytotoxicity at 70.5 h came out at 3.03%. For `Cc1cnn(CCNCCCOc2ccc(C#N)cc2)c1`, the cytotoxicity at 70.5 h was 3.37%.

For the molecule `c1cnn(CCNCCCOc2ccc3c(c2)OCO3)c1`, the cytotoxicity at 70.5 h was determined as 0.993%. For `CC1CN(Cc2ccccc2)CCCN1CCNS(C)(=O)=O` (stereo unspecified), the cytotoxicity at 70.5 h is -0.345%. On to `Cc1cnn(CCCNC2Cc3ccccc3C2)c1`, for which the cytotoxicity at 70.5 h was determined as 9.93%. As for `CCC(C)NC(=O)CS(=O)(=O)Cc1cc(C)ccc1C` (stereo unspecified), the cytotoxicity at 70.5 h is -11.2%. Regarding `CCc1noc(CS(=O)(=O)CC(=O)N2c3ccccc3CC2C)n1` (stereo unspecified), the cytotoxicity at 70.5 h is -12.6%. As for `CN(C)C(CNCc1nc(-c2ccsc2)no1)c1ccsc1` (stereo unspecified), the cytotoxicity at 70.5 h stood at 4.31%. As for `CN(C)c1ccc(NC(=O)N2CCCCCC2c2ccncc2)cn1` (stereo unspecified), the cytotoxicity at 70.5 h was -10.6%.

As for `O=C(CNC(=O)c1cnc2ccccc2c1O)NCCn1ccnc1`, the cytotoxicity at 70.5 h is -6.04%. Then `CCS(=O)(=O)CC(=O)NC(C)c1ccc(F)cc1F` (stereo unspecified), with -6.32%; and `Cc1n[nH]cc1CNC1(c2ccc(Br)cc2)CC1`, with -0.84%; and `Cc1n[nH]c(C2CN(Cc3csc(C4CCCCC4)n3)CCO2)n1` (stereo unspecified), with 0.0665%. Then `CSCC(C)(O)CNc1ccccn1` (stereo unspecified), with -1.72%; and `Cc1cc(C)c(C(=O)NCCNc2ncnc3ccccc23)c(=O)[nH]1`, with -2.04%; and `COc1ccccc1NC(=O)NCc1cn[nH]c1`, with -7.77%. In the case of `CNS(=O)(=O)c1csc(C(=O)N(C)Cc2sccc2C)c1`, the cytotoxicity at 70.5 h is -6.58%.
